Laboratory results reported in patent US20150322038A1, “PYRAZINE DERIVATIVES AND THEIR USE IN THE TREATMENT OF NEUROLOGICAL DISORDERS” (NOVARTIS AG, priority 2009, published 2015).
pIC50: −log10 of the molar value. Counter-ions that a name gives are not always drawn.

Tests used:
[1] = system: cellular release of amyloid peptide 1-40; test: Test 4: Inhibition of cellular release of amyloid peptide 1-40; type: cell-based; settings: Cricetulus griseus, Chinese hamster ovary cells transfected with the gene for amyloid precursor protein, 24 hours with compound, amyloid peptide 1-40 in supernatant, read-out: Bace IC50
Protocol: Test 4: Inhibition of Cellular Release of Amyloid Peptide 1-40
Chinese hamster ovary cells are transfected with the gene for amyloid precursor protein. The cells are plated at a density of 8000 cells/well into 96-well microtiter plates and cultivated for 24 hours in DMEM cell culture medium containing 10% FCS. The test compound is added to the cells at various concentrations, and the cells are cultivated for 24 hours in the presence of the test compound. The supernatants are collected, and the concentration of amyloid peptide 1-40 is determined using state of the art immunoassay techniques, for example sandwich ELISA, homogenous time-resolved fluorescence (HTRF) immunoassay, or electro-chemiluminescence immunoassay. The potency of the compound is calculated from the percentage of inhibition of amyloid peptide release as a function of the test compound concentration.

human BACE-1 = human BACE-1 (Homo sapiens, UniProt P56817); test: Test 1: Inhibition of human BACE-1; type: biochemical; settings: recombinant BACE-1, pH 4.5, fluorescence-quenched APP-derived peptide substrate
Protocol: Test 1: Inhibition of Human BACE-1
IC50 values are calculated from percentage of inhibition of BACE-1 activity as a function of the test compound concentration.

Chain of human BACE-1 (P56817 46-457 limits assumed): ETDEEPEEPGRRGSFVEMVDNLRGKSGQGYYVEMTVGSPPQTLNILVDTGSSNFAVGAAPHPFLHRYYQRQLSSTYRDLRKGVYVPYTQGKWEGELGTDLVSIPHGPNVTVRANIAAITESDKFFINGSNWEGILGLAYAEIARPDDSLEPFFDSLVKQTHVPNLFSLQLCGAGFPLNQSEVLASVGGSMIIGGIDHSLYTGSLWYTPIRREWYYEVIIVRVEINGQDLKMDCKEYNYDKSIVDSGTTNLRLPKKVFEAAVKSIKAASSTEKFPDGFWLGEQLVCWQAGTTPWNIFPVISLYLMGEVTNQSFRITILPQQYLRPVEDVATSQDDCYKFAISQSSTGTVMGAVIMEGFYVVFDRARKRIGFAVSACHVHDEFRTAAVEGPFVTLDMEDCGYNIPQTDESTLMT

Row | SMILES | pIC50 [1] | pIC50 (human BACE-1)
1 | CN1CC(C)(c2cc(NC(=O)c3ccc(Br)cn3)ccc2F)N=C(N)C1=O (centres unmarked) [Example 4, 5-Bromo-pyridine-2-carboxylic acid [3-(6-amino-2,4-dimethyl-5-oxo-2,3,4,5-tetrahydro-pyrazin-2-yl)-4-fluoro-phenyl]-amide hydrochloride] | 7.04 | 7.02
2 | CCN1CC(C)(c2cc(NC(=O)c3ccc(Br)cn3)ccc2F)N=C(N)C1=O (centres unmarked) [Example 6, 5-Bromo-pyridine-2-carboxylic acid [3-(6-amino-4-ethyl-2-methyl-5-oxo-2,3,4,5-tetrahydro-pyrazin-2-yl)-4-fluoro-phenyl]-amide hydrochloride] | 7.23 | 7.29
3 | CCN1CC(C)(c2cc(NC(=O)c3ccc(C#N)cn3)ccc2F)N=C(N)C1=O (centres unmarked) [Example 14, 5-Cyano-pyridine-2-carboxylic acid [3-(6-amino-4-ethyl-2-methyl-5-oxo-2,3,4,5-tetrahydro-pyrazin-2-yl)-4-fluoro-phenyl]-amide hydrochloride] | 6.89 | 7.20
4 | CN1CC(C)(c2cc(NC(=O)c3ncc(Cl)cc3Cl)ccc2F)N=C(N)C1=O (centres unmarked) [Example 7, 3,5-Dichloro-pyridine-2-carboxylic acid [3-(6-amino-2,4-dimethyl-5-oxo-2,3,4,5-tetrahydro-pyrazin-2-yl)-4-fluoro-phenyl]-amide hydrochloride] | 6.80 | 7.17
5 | CC(=O)N1CC(N)=NC(c2cc(NC(=O)c3ncc(Br)cc3C)ccc2F)(C(F)F)C1 (centres unmarked) [Example 21, 5-Bromo-3-methyl-pyridine-2-carboxylic acid [3-(4-acetyl-6-amino-2-difluoromethyl-2,3,4,5-tetrahydro-pyrazin-2-yl)-4-fluoro-phenyl]-amide] | 7.51 | 8.05
6 | COc1cnc(C(=O)Nc2ccc(F)c([C@]3(C(F)F)CNCC(N)=N3)c2)c(N)n1 (single isomer, unassigned) [Example 28] | 8.24 | 7.70
7 | Cn1cc(N2CC(C)(c3cc(NC(=O)c4ccc(Br)cn4)ccc3F)N=C(N)C2=O)cn1 (centres unmarked) [Example 12, 5-Bromo-pyridine-2-carboxylic acid {3-[6-amino-2-methyl-4-(1-methyl-1H-pyrazol-4-yl)-5-oxo-2,3,4,5-tetrahydro-pyrazin-2-yl]-4-fluoro-phenyl}-amide hydrochloride] | 7.08 | 7.70
8 | NC1=N[C@@](c2cc(NC(=O)c3ncc(=O)[nH]c3N)ccc2F)(C(F)F)CNC1 [Example 29, 3-Amino-5-oxo-4,5-dihydro-pyrazine-2-carboxylic acid [3-((R)-6-amino-2-difluoromethyl-2,3,4,5-tetrahydro-pyrazin-2-yl)-4-fluoro-phenyl]-amide] | 6.07 | 6.66
9 | Cc1cc(OC(F)F)cnc1C(=O)Nc1ccc(F)c([C@]2(C(F)F)CNCC(N)=N2)c1 (single isomer, unassigned) [Example 27] | 7.92 | 7.66

More lines, in order of rising pIC50 [1], values ahead:

Row | pIC50 [1] | pIC50 (human BACE-1) | SMILES
10 | 6.01 | 5.89 | CCC1C(N)=NC(C)(c2cccc(NC(=O)c3ccc(Br)cn3)c2)C(=O)N1C (mixture of isomers) [Example 15, 5-Bromo-pyridine-2-carboxylic acid [3-(6-amino-5-ethyl-2,4-dimethyl-3-oxo-2,3,4,5-tetrahydro-pyrazin-2-yl)-phenyl]-amide]
11 | 6.55 | 8.15 | CC1(c2cc(NC(=O)c3ccc(Br)cn3)ccc2F)CN(c2cccnc2)C(=O)C(N)=N1 (centres unmarked) [Example 13, 5-Bromo-pyridine-2-carboxylic acid [3-(6-amino-2-methyl-5-oxo-4-pyridin-3-yl-2,3,4,5-tetrahydro-pyrazin-2-yl)-4-fluoro-phenyl]-amide hydrochloride]
12 | 6.59 | 6.40 | CN1CC(N)=NC(C)(c2cccc(NC(=O)c3ccc(Br)cn3)c2)C1=O (centres unmarked) [Example 3, 5-Bromo-pyridine-2-carboxylic acid [3-(6-amino-2,4-dimethyl-3-oxo-2,3,4,5-tetrahydro-pyrazin-2-yl)-phenyl]-amide]
13 | 6.72 | – | CN1CC(C)(c2cc(NC(=O)c3ccc(Cl)cn3)ccc2F)N=C(N)C1=O (centres unmarked) [Example 5, 5-Chloro-pyridine-2-carboxylic acid [3-(6-amino-2,4-dimethyl-5-oxo-2,3,4,5-tetrahydro-pyrazin-2-yl)-4-fluoro-phenyl]-amide hydrochloride]
14 | 7.13 | 7.47 | COCCN1CC(C)(c2cc(NC(=O)c3ncc(Cl)cc3Cl)ccc2F)N=C(N)C1=O (centres unmarked) [Example 10, 3,5-Dichloro-pyridine-2-carboxylic acid {3-[6-amino-4-(2-methoxy-ethyl)-2-methyl-5-oxo-2,3,4,5-tetrahydro-pyrazin-2-yl]-4-fluoro-phenyl}-amide hydrochloride]
15 | 7.21 | 7.68 | N#Cc1ccc(C(=O)Nc2ccc(F)c(C3(C(F)F)CNC(=O)C(N)=N3)c2)nc1 (centres unmarked) [Example 18, 5-Cyano-pyridine-2-carboxylic acid [3-(6-amino-2-difluoromethyl-5-oxo-2,3,4,5-tetrahydro-pyrazin-2-yl)-4-fluoro-phenyl]-amide]
16 | 7.36 | 7.64 | CC(=O)N1CC(N)=NC(c2cc(NC(=O)c3ncc(OC(F)F)cc3C)ccc2F)(C(F)F)C1 (centres unmarked) [Example 26, 5-Difluoromethoxy-3-methyl-pyridine-2-carboxylic acid [3-(4-acetyl-6-amino-2-difluoromethyl-2,3,4,5-tetrahydro-pyrazin-2-yl)-4-fluoro-phenyl]-amide]
17 | 7.43 | 7.48 | CC(C)N1CC(C)(c2cc(NC(=O)c3ccc(Br)cn3)ccc2F)N=C(N)C1=O (centres unmarked) [Example 9, 5-Bromo-pyridine-2-carboxylic acid [3-(6-amino-4-isopropyl-2-methyl-5-oxo-2,3,4,5-tetrahydro-pyrazin-2-yl)-4-fluoro-phenyl]-amide hydrochloride]
18 | 7.47 | 8.15 | COCC(=O)N1CC(N)=NC(c2cc(NC(=O)c3ncc(Br)cc3C)ccc2F)(C(F)F)C1 (centres unmarked) [Example 23, 5-Bromo-3-methyl-pyridine-2-carboxylic acid {3-[6-amino-2-difluoromethyl-4-(2-methoxy-acetyl)-2,3,4,5-tetrahydro-pyrazin-2-yl]-4-fluoro-phenyl}-amide]
19 | 7.55 | 7.96 | Cc1cc(Br)cnc1C(=O)Nc1ccc(F)c(C2(C(F)F)CN(C(=O)C3CC3)CC(N)=N2)c1 (centres unmarked) [Example 24, 5-Bromo-3-methyl-pyridine-2-carboxylic acid [3-(6-amino-4-cyclopropanecarbonyl-2-difluoromethyl-2,3,4,5-tetrahydro-pyrazin-2-yl)-4-fluoro-phenyl]-amide]
20 | 7.68 | 8.30 | Cc1cc(Br)cnc1C(=O)Nc1ccc(F)c(C2(C(F)F)CN(C(=O)OCC(Cl)Cl)CC(N)=N2)c1 (centres unmarked) [Example 22, 5-Amino-3-{5-[(5-bromo-3-methyl-pyridine-2-carbonyl)-amino]-2-fluoro-phenyl}-3-difluoromethyl-3,6-dihydro-2H-pyrazine-1-carboxylic acid 2,2-dichloro-ethyl ester]
21 | 8.00 | 7.55 | Cc1cc(Br)cnc1C(=O)Nc1ccc(F)c(C2(C(F)F)CNCC(N)=N2)c1 (centres unmarked) [Example 25, 5-Bromo-3-methyl-pyridine-2-carboxylic acid [3-(6-amino-2-difluoromethyl-2,3,4,5-tetrahydro-pyrazin-2-yl)-4-fluoro-phenyl]-amide]
